Reference: US9820981B2, “Treatment of retinopathy of prematurity (ROP)” (The Cleveland Clinic Foundation, priority 2013, dated 2017)

Columns and labels:
[1] = system: oxygen-induced retinopathy (OIR); assay: Oxygen-induced retinopathy (OIR) mouse model, retinal flatmounts; assay type: in vivo; details: for reduction of capillary dropout in retinal flatmounts (percent avascular area of total retinal area): P17, each at optimal dose (10 μg/g FG-4592, 200 μg/g DMOG) i.p. at P6, P8, P10
Experimental: The PBS-treated pup has an ischemic, posterior retina compared to the FG-4592-treated pup. Pups were treated with intraperitoneal injection of 10 μg/g body weight FG-4592 at P6, P8, and P10 while in 75% hyperoxia. At P12, pups were removed to room air with their nursing mothers and sacrificed at P17. Eyes were removed and fixed for 15 minutes in fresh 4% paraformaldehyde (PFA) before isolating whole retina, permeabilizing and lectin staining, then flat mounting for fluorescence microscopy.
An automated computer program (ImagePro version 7.0) measures capillary dropout and neovascular tufting seen in 3B.
The mouse model of ROP used in this study is based on a well-established protocol by Smith et al. (L. E. Smith, E. Wesolowski, A. McLellan, S. K. Kostyk, R. D'Amato, R. Sullivan, and P. A. D'Amore. Oxygen-induced retinopathy in the mouse. Investigative ophthalmology & visual science. 35:101-111 (1994)) that involves exposing pups and their nursing mothers to 5 days of hyperoxia (75% oxygen) during P7 through P12 in the wild type C57BL6 (WT) pups. A Plexiglas incubator with an oxygen sensor and feedback system ProOx (Biospherix, Lacona, N.Y.) was used to ensure continuous hyperoxia. Animals were injected intraperitoneally with FG-4592 (10 μg/g), DMOG (200 μg/g) or control PBS in the equivalent volume at P6, P8, and P10. […] Flatmount preparation and lectin (GS-IB4-Alexa568, Life Technologies, Grand Island, N.Y.) staining was performed essentially as described elsewhere (K. M. Connor, N. M. Krah, R. J. Dennison, C. M. Aderman, J. Chen, K. I. Guerin, P. Sapieha, A. Stahl, K. L. Willett, and L. E. Smith. Quantification of oxygen-induced retinopathy in the mouse: a model of vessel loss, vessel regrowth and pathological angiogenesis. Nat Protoc. 4:1565-1573 (2009); A. Stahl, K. M. Connor, P. Sapieha, K. L. Willett, N. M. Krah, R. J. Dennison, J. Chen, K. I. Guerin, and L. E. Smith. Computer-aided quantification of retinal neovascularization. Angiogenesis. 12:297-301 (2009)). Retinas were dissected using four radial cuts, and flatmounted onto glass slides with Vectashield (Vector Labs, Burlingame, Calif.). All animal procedures were performed in accordance with the Cleveland Clinic Institutional Animal Care and Use Committee.
For quantitative analysis of avascular area, vascular tortuosity, and tufting, retinal images were batch processed using a customized macro and algorithms generated in Image-Pro Plus 7.0 (Media Cybernetics, Silver Spring, Md.) as previously described (J. E. Sears, G. Hoppe, Q. Ebrahem, and B. Anand-Apte. Prolyl hydroxylase inhibition during hyperoxia prevents oxygen-induced retinopathy. Proceedings of the National Academy of Sciences of the United States of America. 105:19898-19903 (2008)).
FG-4592 was solubilized as a stock solution of […] in DMSO, which was then diluted 50 times in PBS to a concentration of 1 μg/microliter to facilitate a final dose of 10 μg/g body weight of each mouse pup. Three injections were administered during the hyperoxic phase of oxygen-induced retinopathy (OIR) at 48-hour intervals.

EPO = assay: Serum EPO ELISA; assay type: in vivo; details: P8 mouse pups
Experimental: (§1) Wild-type (WT) and HIF-1α knock-out (KO) P8 mouse pups were injected with 10 μg/g FG-4592 and, following indicated periods of time, the pups were anesthetized by ketamine/xylazine, blood was drawn using heparinized 27-gauge needle and syringe. Serum was diluted 1:10 (EPO), 1:5 (VEGF) or 1:100 (ANGPTL-3) with sample diluent provided by the manufacturer (R&D Systems, Minneapolis, Minn.). Spectrophotometric measurements of EPO, VEGF, and ANGPTL-3 quantities were obtained according to the manufacturer's instructions.

[2] = system: Hepatic EPO, VEGFA and ANGPTL3 mRNA; assay: Reverse transcription and quantitative PCR of hepatic mRNA; assay type: in vivo, mouse; details: data not shown
Experimental: Tissue from liver, kidney, brain and retina were placed into 1 mL of RNAlater reagent (Qiagen, Germantown, Md.) and stored at −80° C. Total RNA was extracted using RNeasy kit (Qiagen) and measured using NanoDrop and standard spectrophotometric parameters. One μg of total RNA from each sample was retrotranscripted to cDNA using QuantiTect Reverse Transcription Kit (Qiagen). One μl of cDNA samples was used as template for amplification reactions carried out with the QuantiTect SYBR Green PCR kit (Qiagen) following the manufacturer's instructions. PCR amplifications were performed in a 7900HT Fast Real-Time PCR system (Applied Biosystems, Foster City, Calif.) and quantitative PCR data analysis was performed with RQ Managed software (Applied Biosystems).

VEGF = assay: Serum VEGF ELISA; assay type: in vivo; details: P8 mouse pups
Experimental: as §1

[3] = system: serum erythropoietin (Epo), a HIF-regulated gene product; assay: Immunoblot of serum erythropoietin (Epo) response after single intraperitoneal injection; assay type: in vivo; details: P8 mouse pups, serum 6 hours after a single intraperitoneal injection
HIF-1α = assay: Western blot of HIF-1α protein in organ lysates; assay type: in vivo; details: mouse pups, versus PBS
Experimental: Mice were sacrificed by ketamine/xylazine overdose, organs collected and placed in RIPA buffer (200 μL per 50 mg of tissue, pH 7.0) containing protease inhibitors Complete (Roche, Indianapolis, Ind.), disrupted using a tight fitting microtube pestle, and centrifuged to remove particulate matter. A Pierce BCA protein assay (Thermo Scientific, Rockford, Ill.) was used to measure protein concentrations. Lysates were subjected to 4-20% SDS-PAGE and electro-transferred to PVDF membranes for immunoblotting. Membranes were blocked with 5% nonfat dried milk in Tris-buffered saline and 0.1% Tween-20, then probed with anti-HIF-1α, antibody (Cayman Chemical, Ann Arbor, Mich.) overnight. After washing and secondary antibody hybridization, membranes were exposed by chemiluminescence (Western Lighting, PerkinElmer, Waltham, Mass.).
FIG. 5A is images of Western blots detecting HIF-1α protein in organ lysates derived from pups treated with PBS or FG-4592, and FIG. 5B is a graph of integrated optical density of the immunoblots shown in FIG. 5A.

[4] = system: angiopoietin-like protein 3 (ANGPTL-3); assay: Serum ANGPTL-3 ELISA; assay type: in vivo; details: P8 mouse pups
Experimental: as §1

[5] = system: HIF prolyl hydroxylase (PHD); assay: In vivo localization of PHD inhibition in luc-ODD mouse (luminescence imaging, luciferase activity in organ lysates); details: for localization of luminescence, whole animal imaging: luc-ODD mouse
Experimental: Gt(ROSA)26Sor^tml(Luc)Kael (luc-ODD) mice were obtained from the Jackson Laboratory (Bar Harbor, Me.). Pups were given i.p. injections of 10 μg/g FG-4592 at indicated periods of time prior to live imaging. Mice were injected with mixture of 100 mg/kg ketamine, 10 mg/kg xylazine and 50 mg/kg luciferin and placed in a light-tight chamber connected to a supercooled, charge-coupled camera. Photons were collected for 15 seconds using IVI 100 Imaging System (PerkinElmer, Waltham, Mass.).
The luc-ODD mouse has a transgene comprised of luciferase fused to the ODD and, therefore, serves as a reporter gene in vivo of where hydroxylation of the ODD is inhibited, observed as luminescence in tissue lysates and whole animal imaging.
Quantitation of the effect shown in FIG. 4A supports the specificity of this effect in tissue lysates.

[6] = murine OIR model, 10 eyes each group

| Structure (SMILES) | reduction of capillary dropout in retinal flatmounts (percent avascular area of total retinal area) ([1]; versus PBS) [fold] | circulating (serum) levels of EPO (EPO; 10 μg/g FG-4592 i.p.) | time of peak EPO production after treatment (EPO; time-course study) [h] | Hepatic EPO, VEGFA and ANGPTL3 mRNA levels and kinetics [2] | serum levels of VEGF (VEGF; 10 μg/g FG-4592 i.p.) | time of peak VEGF levels after treatment (VEGF; time-course study) [h] | potency relative to DMOG, quantification of serum Epo immunoblot [3] | organ specific stabilization of HIF-1α protein (integrated optical density) (HIF-1α) | elevation of ANGPTL-3 in serum ([4]; 10 μg/g FG-4592 i.p.) [fold] | time course of ANGPTL-3 induction ([4]; time-course study) | organ specificity, luciferase activity (RLU/mg tissue protein) in organ lysates ([5]; luc-ODD mice, s.c. or i.p. injection, versus PBS) | localization of luminescence, whole animal imaging ([5]; i.p. injection) | localization of luminescence, whole animal imaging ([5]; s.c. injection) | duration of HIF PHD inhibition ([5]; single intraperitoneal injection, time course in kidney and lung) | preservation of retinal vessels in retinal flatmounts ([1]; 10 μg/g i.p. at P6, P8, P10 in 75% hyperoxia, sacrificed P17, versus PBS) | benefit in direct comparison with DMOG ([1]; OIR model, 10 μg/g FG-4592 versus 200 μg/g DMOG) | ischemic, hypoxic retina (isolectin and Hypoxyprobe staining) ([1]; P17, versus sham PBS injection) | rate of decrease of central avascular region (retinovascular repair) ([1]; flatmounts at P12, P15, P17, treated versus PBS) | inhibition of capillary drop-out compared with DMOG [1, 6] | inhibition of neovascularization subsequent to capillary drop-out compared with DMOG [1, 6] |
| --- | --- | --- | --- | --- | --- | --- | --- | --- | --- | --- | --- | --- | --- | --- | --- | --- | --- | --- | --- | --- |
| COC(=O)CNC(=O)C(=O)OC [DMOG, dimethyl oxaloylglycine] | 3 | – | – | – | – | – | – | – | – | – | – | – | – | – | – | – | – | – | – | – |
| Cc1nc(C(=O)NCC(=O)O)c(O)c2ccc(Oc3ccccc3)cc12 [FG-4592] | 3 | marked increase | 3 | mirrored their corresponding serum protein concentrations | moderate but statistically significant increase | 6 | approximately fifteen times more potent than DMOG | maximal increase in HIF-1α in liver and kidney lysates | 6 | sustained induction, even 24 hours after FG-4592 treatment | specificity of FG-4592 for liver and kidney | liver- and kidney-specific luminescence | liver- and kidney-specific luminescence | at least 24 hours | preservation of retinal vessels | at least the same benefit as DMOG, with a trend to superiority of FG-4592 | decrease in ischemic, hypoxic retina at P17 | identical rates of decrease of this region in treated and untreated animals | inhibits capillary drop-out better than DMOG | inhibits neovascularization subsequent to capillary drop-out better than DMOG |
